Test results published in patent publication US20130245110A1, “USE FOR CANNABINOIDS” (priority 2008, published 2013).
“And” between values parts separate entries of the source, which are not always exact repeats. Equal entries are not always repeated.

Key:
C57B1/6 ob/ob mouse [1] = test: Plasma triglycerides; type: in vivo; conditions: ob/ob mice; CBD given on its own (3.0 mg/kg)
Procedure: The following are a battery of tests used to elicit the effects of drugs on diseases including type I or II diabetes, obesity, dyslipidaemia, related metabolic disorders and cardiovascular disease. • a) Body weight: Bodyweights of all mice were measured twice weekly during the study. • b) Food intake: Food intake was measured by weight difference taking account of food wastage in the bottom of the cage. • c) Measurement of water consumption: Water intake was calculated daily for each animal, during the treatment period, by weight difference of the water bottle. • d) Oral Glucose Tolerance Test (OGTT): Glucose was dissolved in water (3 g/10 ml) and given to the mice orally at a rate of 3 g/kg. […] Samples were then analysed automatically using a SpectraMax-250 and SoftMax Pro software. • f) Plasma preparation: Blood was collected for the measurement of i) plasma insulin, ii) cholesterol, iii) free fatty acids or iv) triglyceride concentration. • i. Plasma insulin analysis: Plasma insulin was measured using 5 μl of plasma, compared with a mouse insulin standard using a 96-well micro-assay plate • ii. […] The samples were mixed and incubated for 5 minutes before reading at dual wavelengths of 500 and 660 nm. • iii. Plasma free fatty acids: 5 μl samples of plasma were measured into a 96-well assay plate, to which was added 0.2 ml of reagents NEFA C • iv. […]

aorta = test: Chronic treatment of rats, vascular responses in isolated arteries; type: in vivo, rat; conditions: aorta of rats treated for 2 weeks
3T3L1 cells = test: Induction of adipocyte differentiation (Oil red O); type: cell-based; conditions: treated for 8 days
Procedure: In vitro vascular studies were carried out in rat isolated aortae by wire myography. PPARγ activation was investigated using reporter gene assays, a PPARγ competition-binding assay and an adipogenesis assay.
Cells were fixed and stained with Oil red O to identify fat droplets, to the presence of which indicates differentiation of fibroblasts into adipocytes. […] […].

NOD mice = conditions: 86% in non-treated controls; cited from earlier work
C57B1/6 ob/ob mouse [2] = test: Fed plasma HDL-cholesterol; type: in vivo; conditions: ob/ob mice; for Fed HDL cholesterol day 28: individual values; for percentage HDL cholesterol day 28: HDL as percentage of total cholesterol
Procedure: The following are a battery of tests used to elicit the effects of drugs on diseases including type I or II diabetes, obesity, dyslipidaemia, related metabolic disorders and cardiovascular disease. • a) Body weight: Bodyweights of all mice were measured twice weekly during the study. • b) Food intake: Food intake was measured by weight difference taking account of food wastage in the bottom of the cage. • c) Measurement of water consumption: Water intake was calculated daily for each animal, during the treatment period, by weight difference of the water bottle. • d) Oral Glucose Tolerance Test (OGTT): Glucose was dissolved in water (3 g/10 ml) and given to the mice orally at a rate of 3 g/kg. […] Blood samples were also taken at −30 minutes for insulin analysis. • e) Blood Glucose analysis: Duplicate 20 μl samples of blood of were taken for each individual sample and placed in a 96-well assay plate. To each well was added 180 μl aliquots of glucose oxidase reagent. Samples were mixed and then left for approximately 30 minutes. Samples were then analysed automatically using a SpectraMax-250 and SoftMax Pro software. • f) Plasma preparation: Blood was collected for the measurement of i) plasma insulin, ii) cholesterol, iii) free fatty acids or iv) triglyceride concentration. • i. Plasma insulin analysis: Plasma insulin was measured using 5 μl of plasma, compared with a mouse insulin standard using a 96-well micro-assay plate • ii. Plasma cholesterol analysis: To each sample was added 200 μl of infinity cholesterol liquid stable reagent. The samples were mixed and incubated for 5 minutes before reading at dual wavelengths of 500 and 660 nm. • iii. Plasma free fatty acids: 5 μl samples of plasma were measured into a 96-well assay plate, to which was added 0.2 ml of reagents NEFA C • iv. Plasma triglycerides analysis: To each well 200 μl aliquots of triglycerides reagent. […] Comparison with a calibrated standard allowed identification of types of tissue by their density. Dedicated software was using to quantify amounts of bone and fat. The mice were lightly anaesthetised, sufficient to keep them quiescent during this non-invasive technique. • h) Energy expenditure measurements: Energy expenditure was measured by open circuit indirect calorimetry with mice in their home cages. For studies of 24 h energy expenditure, mice were dosed with their allocated treatment and then measurements commenced. […] Plasma leptin was measured in fed mice using the Crystal Chem Elisa assay. • j) Plasma adiponectin: Adiponectin exerts some of its weight reduction effects via the brain. This is similar to the action of leptin, but the two hormones perform complementary actions, and can have additive effects. Plasma adiponectin was measured in overnight fasted mice using the 96-well B-Bridge Elisa assay. • k) Plasma HDL-cholesterol: Plasma HDL-cholesterol was measured in fed mice using the kit from Trinity Biotech. • l) 24 h blood glucose profile: This was determined in order to ensure that changes in the diurnal control of blood glucose were detected. Thus blood samples were obtained at three hourly intervals throughout a continuous 24 h period. • m) Plasma haemoglobin AIC: Samples (10 μl) were analysed using the AIC. […] The homogenate was then extracted overnight at 4° C. and centrifuged at 2000 g for 5 min. • o) Pancreatic islet histology: […] sections were cut using a Leica RM2125 rotary microtome, transferred to positively-charged glass slides and dried overnight at 42° C. Morphology was assessed using hematoxylin and eosin staining. • p) Liver glycogen: After centrifugation (3000×g for 15 min), an aliquot of the supernatant (10 μl) is assayed using the glucose oxidase method. […] 1 ml of chloroform is added and tubes vortexed and left at 4° C. for 2 h with vortexing every 30 min. 200 μl of 0.9% sodium chloride is added and after thorough vortexing, the mixture is centrifuged at 300×g for 5 min.

[3] = test system: dietary induced obese (DIO) mouse model; test: Thermic response to food (energy expenditure after Complan meal), chronic dosing study; type: in vivo; design: Thermic response to food: unit not given here; conditions: for Thermic response to food: listed as pure THCV
Text: (§1) Once the acute studies were complete the mice were grouped in two groups of five mice for the chronic dosing study. Dosing was daily by oral gavage at 09:00-10:00.
Energy expenditure consists of basal metabolic rate, exercise-induced energy expenditure, and non-exercise thermogenesis. The latter is the most likely area to be affected by anti-obesity agents. Non-exercise thermogenesis includes the thermic response to food, which in rodents can be measured by examining energy expenditure in response to a meal. This was measured after an oral dose of complan (see methods).

[4] = test system: dietary induced obese (DIO) mouse model; test: Percentage body fat by Dexascan; type: in vivo; conditions: DIO mice; day 28 Dexascan; pure THCV at 30-fold lower dose than rimonabant
[5] = test system: dietary induced obese (DIO) mouse model; test: 24 h energy expenditure by indirect calorimetry, chronic dosing study; type: in vivo; conditions: DIO mice
Text: The C57B1/6 mouse fed on a high fat diet for around 12 weeks is a standard model used to evaluate agents likely to affect metabolic disease including obesity, type II diabetes and dyslipidaemia. Thus both potential anti-obesity effects and effects on diabetic and dyslipidaemia parameters will be measured.
as §1

[6] = test system: dietary induced obese (DIO) mouse model; test: Growth (body weight, nose-anus length); type: in vivo; conditions: DIO mice; chronic dosing
[7] = 3.0 mg·kg−1 daily oral gavage (combination: both 3.0)
[8] = 0.3 mg·kg−1 daily oral gavage (combination: both 0.3)

C=C(C)[C@@H]1CCC(C)=C[C@H]1c1c(O)cc(CCCCC)cc1O [CBD, cannabidiol]
Plasma triglycerides (C57B1/6 ob/ob mouse [1]): no effect on plasma triglycerides
Maximal response to methoxamine (aorta): 1.63±0.21 g increase tension
Potency of acetylcholine (pEC50) (aorta): 5.37±0.40
Differentiation of fibroblasts into adipocytes (Oil Red O staining of fat droplets) (3T3L1 cells): signs of fat droplet accumulation were apparent at all concentrations tested
Incidence of diabetes (NOD mice): 30%
Fed HDL cholesterol day 28 (C57B1/6 ob/ob mouse [2]; [7]): increasing the amount and 3.31 and 3.00 and 3.36 and 3.63 and 2.98 and 3.38 and 3.18
Fed HDL cholesterol day 28 (C57B1/6 ob/ob mouse [2]; 3.0 mg·kg−1 daily oral gavage (combination: both 3.0), listed as Pure CBD): increasing the plasma HDL-cholesterol concentration

CCCc1cc(O)c2c(c1)OC(C)(C)[C@@H]1CCC(C)=C[C@@H]21 [THCV, tetrahydrocannabivarin]
Thermic response to food ([3]; DIO mice, days 15-17, 0.3 mg·kg−1 p.o., Hour 0.22): 0.67 and 0.91 and 1.26
Thermic response to food ([3]; DIO mice, days 15-17, 0.3 mg·kg−1 p.o., Hour 0.44): 1.78 and 1.70 and 1.98
Thermic response to food ([3]; DIO mice, days 15-17, 0.3 mg·kg−1 p.o., Hour 0.67): 2.30 and 2.06 and 2.49
Thermic response to food ([3]; DIO mice, days 15-17, 0.3 mg·kg−1 p.o., Hour 0.89): 2.51 and 2.42
Thermic response to food ([3]; DIO mice, days 15-17, 0.3 mg·kg−1 p.o., Hour 1.11): 2.51 and 2.74 and 2.64
Thermic response to food ([3]; DIO mice, days 15-17, 0.3 mg·kg−1 p.o., Hour 1.33): 2.50 and 2.82 and 2.67
Thermic response to food ([3]; DIO mice, days 15-17, 0.3 mg·kg−1 p.o., Hour 1.56): 2.53 and 2.81 and 3.13
Thermic response to food ([3]; DIO mice, days 15-17, 0.3 mg·kg−1 p.o., Hour 1.78): 2.54 and 2.76 and 3.31
Thermic response to food ([3]; DIO mice, days 15-17, 0.3 mg·kg−1 p.o., Hour 2.00): 2.45 and 2.62 and 3.18
Thermic response to food ([3]; DIO mice, days 15-17, 0.3 mg·kg−1 p.o., Hour 2.22): 2.61 and 2.74 and 3.44
Thermic response to food ([3]; DIO mice, days 15-17, 0.3 mg·kg−1 p.o., Hour 2.44): 2.71 and 2.74 and 3.18
Thermic response to food ([3]; DIO mice, days 15-17, 0.3 mg·kg−1 p.o., Hour 2.67): 2.66 and 2.83 and 3.10
Thermic response to food ([3]; DIO mice, days 15-17, 0.3 mg·kg−1 p.o., Hour 2.89): 2.71 and 3.01 and 3.09
Thermic response to food ([3]; DIO mice, days 15-17, 0.3 mg·kg−1 p.o., Hour 3.11): 2.68 and 3.16 and 3.02
Thermic response to food ([3]; DIO mice, days 15-17, 0.3 mg·kg−1 p.o., Hour 3.33): 2.68 and 3.34 and 3.04
Thermic response to food ([3]; DIO mice, days 15-17, 0.3 mg·kg−1 p.o., Hour 4.00): 2.70 and 3.49 and 3.13
Thermic response to food, effect in words ([3]; DIO mice, days 15-17, chronic-study doses (rimonabant 10, pure THCV 0.3 mg·kg−1 p.o.)): have an affect over 2 h
Thermic response to food ([3]; mouse, in vivo, po): 2.61 and 3.49 and 3.02 and 2.43 and 3.48 and 3.03
Percentage body fat [4]: at least as effective as rimonabant
Potency on energy expenditure relative to rimonabant, on a dosage basis [5]: at least 10 fold
Effectiveness on energy expenditure compared with rimonabant ([5]; high dose THCV-BDS, pure THCV 0.3 mg kg−1): more effective than rimonabant
Effect on growth [6]: without any effect on growth
Fed HDL cholesterol day 28 (C57B1/6 ob/ob mouse [2]; [8]): 2.16 (3×) and 2.35 and 2.33 and 2.21 and 2.25 and 2.14
Fed HDL cholesterol day 28 (C57B1/6 ob/ob mouse [2]; [7]): 2.17 and 2.16 and 2.24 and 2.51 and 2.98 and 2.94 and 2.57 and 2.28
percentage HDL cholesterol day 28 (C57B1/6 ob/ob mouse [2]; [8]): 30.4% and 25.1% and 33.6% and 39.3% and 37.5% and 34.3% and 37.9% and 38.0%
percentage HDL cholesterol day 28 (C57B1/6 ob/ob mouse [2]; [7]): 34.5% and 31.1% and 34.0% and 40.4% and 41.3% and 45.6% and 33.6% and 32.4%
